Data taken from patent publication US7000348B2, “Method and composition for tree root colonization” (Vamtech, LLC, priority 2003, dated 2006).
Entries after “also recorded” stand apart in the source; their conditions may differ.

Columns and labels:
Assay type in all cases: in vivo
[1] = tested on: R. rubescens; test: Mycorrhizal colonization of Ponderosa pine seedlings by Rhizopogon (root tip tally); settings: potassium formononetinate 60 mg/L with R. rubescens spores vs spores alone
Description: (§1) Ponderosa pine seeds were sown in a soilless mix (50:50 peat:vermiculite) in 2 cm^3 cells in STRYOBLOCK™ containers (Beaver Plastics, Corvallis, Oreg.) inside the greenhouse at the J. Herbert Stone Nursery in Central Point, Oreg. Eight weeks after germination, all emerging ponderosa pine seedlings were inoculated with 100,000 spores each of the ectomycorrhizal fungus R. rubescens using a liquid suspension applied via a traveling irrigation boom. Liquid spore suspension was prepared by maceration of R. rubescens sporocarps in distilled water for 10 min, followed by serial dilution with distilled water. Spore concentrations were determined using a hemacytometer. Soluble fertilizer (250 ppm N, 60 ppm P and 158 ppm K plus micronutrients) was applied with irrigation for optimum growth. Temperatures were held between 65° F. and 75° F. in the greenhouse. The seedlings were hardened off about six months after sowing by reducing the amount of irrigation water and fertilizer in it (to 50 ppm N, 31 ppm P and 150 ppm K plus micronutrients). No pesticides were used on the crop during this period. Ponderosa pine seedlings were then each inoculated again with 100,000 spores of R. rubescens using the same inoculation procedure. […]
(§2) All trials were conducted in a randomized complete block design. […] Means comparisons were calculated using Fisher's LSD (least significant difference). […]

[2] = tested on: R. parksii; test: Mycorrhizal colonization of Douglas-fir roots by Rhizopogon (root tip tally)
Description: (§3) Douglas-fir seeds were sown in 2 cm^3 in cells in Stryoblock™ containers filled with soilless mix (50:50 peat:vermiculite) in the greenhouse at the J. Herbert Stone Nursery in Central Point, Oreg. Soluble fertilizer applications, temperatures, and hardening off procedure were the same as those described for Ponderosa pine above. No pesticides were used on the crop during this period, and no mycorrhizal inoculum was applied prior to applications of treatments.
(§4) Eight months after sowing, fourteen Douglas-fir seedlings were randomly sampled (2 or 3 from 6 trays) to determine colonization by the mycorrhizal fungus R. parksii. No colonization by R. parksii was present at this time. […]
as §2

[3] = tested on: Ponderosa pine seedlings; test: Caliper diameter of Ponderosa pine seedlings; settings: potassium formononetinate 60 mg/L added to R. rubescens inoculation
Description: as §1, with “greenhouse.” for “greenhouse. The seedlings were hardened off about six months after sowing by reducing the amount of irrigation water and fertilizer in it (to 50 ppm N, 31 ppm P and 150 ppm K plus micronutrients). No pesticides were used on the crop during this period. Ponderosa pine seedlings were then each inoculated again with 100,000 spores of R. rubescens using the same inoculation procedure.”
(§5) The diameter of all seedlings in all of the treatments was then measured with a caliper. […] Samples were analyzed for total nitrogen and phosphorus (Kjeldahl digest with ammonia and orthophosphate read on an auto-analyzer), and extractable potassium (microwave digestion) with inductively couples argon plasma spectrometer (ICPMS).
as §2

[4] = tested on: Douglas-fir seedlings; test: Caliper diameter of Douglas-fir seedlings
Description: as §3, §4, §5, §2

[5] = tested on: Ponderosa pine seedlings; test: Foliar nutrient analysis of Ponderosa pine needles; settings: 60 mg/L, vs seedlings treated with R. rubescens alone
Description: as §1, with “greenhouse.” for “greenhouse. The seedlings were hardened off about six months after sowing by reducing the amount of irrigation water and fertilizer in it (to 50 ppm N, 31 ppm P and 150 ppm K plus micronutrients). No pesticides were used on the crop during this period. Ponderosa pine seedlings were then each inoculated again with 100,000 spores of R. rubescens using the same inoculation procedure.”
as §5, §2

[6] = tested on: Douglas-fir seedlings; test: Foliar nutrient analysis of Douglas-fir needles
Description: as §3
Eight months after sowing, fourteen Douglas-fir seedlings were randomly sampled (2 or 3 from 6 trays) to determine colonization by the mycorrhizal fungus R. parksii. No colonization by R. parksii was present at this time. The treatments applied to three trays of 20 seedlings each were a control with no potassium formononetinate or mycorrhizal inoculation (C), potassium formononetinate only at 20 mg/L of soilless mix (M-20), mycorrhizal inoculation only at 100,000 R. parksii spores/cavity applied with a graduated pipette (R-100), mycorrhizal inoculation with R. parksii at 100,000 spores per cavity plus potassium formononetinate at 20 mg/L of soilless mix (0.11 per 60 seedlings) (M-20+R-100), mycorrhizal inoculation with R. parksii at 100,000 spores per cavity plus potassium formononetinate at 60 mg/L of soilless mix (0.33 per 60 seedlings) (M-60+R-100), and mycorrhizal inoculation with R. parksii at 50,000 spores cavity plus potassium formononetinate at 20 mg/L of soilless mix (M-20+R-50). Potassium formononetinate was provided by VAMTech L.L.C., Lansing, Mich.
The diameter of all seedlings in all of the treatments was then measured with a caliper. Needle samples for Ponderosa pine and Douglas-fir were collected from 4 randomly selected seedlings in each treatment for foliar analysis. Samples were analyzed for total nitrogen and phosphorus (Kjeldahl digest with ammonia and orthophosphate read on an auto-analyzer), and extractable potassium (microwave digestion) with inductively couples argon plasma spectrometer (ICPMS).
All trials were conducted in a randomized complete block design. Analyses of variance (ANOVA) were performed separately for seedling caliper, nutrient content, and mycorrhizal colonization (Steel and Torrie 1980). Means comparisons were calculated using Fisher's LSD (least significant difference). Residuals from the performed ANOVA's were examined using normal probability plots, tests that the residuals come from normal distributions and plots of residuals versus predicted values. Before analysis, mycorrhizal colonization data as logarithmically transformed to compensate for log-normally distributed values (Steel and Torrie 1980).

[7] = M = potassium formononetinate mg/L, R = R. parksii spores x1000 per cavity
[8] = R. parksii and potassium formononetinate, over the untreated control, but not over R. parksii alone

Structure (SMILES): COc1ccc(-c2coc3cc([O-])ccc3c2=O)cc1.[K+] [potassium formononetinate, potassium salt of 7-hydroxy, 4′-methoxy isoflavone]
- root colonization by Rhizopogon, Ponderosa pine (effect in words) [1]: significantly increased
- root colonization by Rhizopogon, Douglas-fir (effect in words) ([2]; potassium formononetinate 60 mg/L with R. parksii spores): significantly increased
- Mycorrhizal colonization of Douglas-fir roots by R. parksii ([2]; thirteen months after sowing, M-20/M-60 = potassium formononetinate 20/60 mg/L of soilless mix, R-100/R-50 = 100,000/50,000 R. parksii spores per cavity): 0%
- caliper diameter, Ponderosa pine (effect in words) [3]: not significantly increased; also recorded: not significantly affected
- caliper diameter, Douglas-fir ([4]; thirteen months after sowing, M = potassium formononetinate mg/L, R = R. parksii spores x1000 per cavity): 0.2 cm
- caliper size, Douglas-fir (effect in words) ([4]; vs untreated control, R. parksii alone or plus potassium formononetinate): increased caliper size over the control
- nitrogen content, Ponderosa pine (effect in words) [5]: significantly increased
- potassium content, Douglas-fir (effect in words) ([6]; 60 mg/L plus R. parksii, vs untreated plants, R. parksii alone and any other treatment): significantly higher
- foliar nitrogen content, Douglas-fir needles [6, 7]: 1.29%
- foliar phosphorous content, Douglas-fir needles [6, 7]: 0.15%
- nitrogen content, Douglas-fir (effect in words) [6, 8]: significantly increased
- phosphorus content, Douglas-fir (effect in words) [6, 8]: significantly increased
